Source: paper PMC5992652, “Insight into the functional roles of Glu175 in the hyperthermostable xylanase XYL10C-ΔN through structural analysis and site-saturation mutagenesis” (Biotechnology for Biofuels, 2018)

Assays:
XYL10C-ΔN = target: T1, XYL10C-ΔN (Bispora sp. MEY-1, UniProt D0QF43); experiment: HPAEC of hydrolysis products; type: biochemical; settings: pH 4.5, 70 °C, 16 h, Na2HPO4-citric acid; products mainly xylose and xylobiose
T1 construct: 18-residue signal peptide and the next 66 N-terminal residues removed; pPIC9, Pichia pastoris GS115; deglycosylated with Endo Hf; two monomers in asymmetric unit

XYL10C = target: T2, XYL10C (Bispora sp. MEY-1, UniProt D0QF43); experiment: HPAEC of hydrolysis products; type: biochemical; settings: pH 4.5, 70 °C, 16 h, Na2HPO4-citric acid; products mainly xylose and xylobiose
T2 construct: 18-residue signal peptide
T2 sequence (D0QF43 19-424): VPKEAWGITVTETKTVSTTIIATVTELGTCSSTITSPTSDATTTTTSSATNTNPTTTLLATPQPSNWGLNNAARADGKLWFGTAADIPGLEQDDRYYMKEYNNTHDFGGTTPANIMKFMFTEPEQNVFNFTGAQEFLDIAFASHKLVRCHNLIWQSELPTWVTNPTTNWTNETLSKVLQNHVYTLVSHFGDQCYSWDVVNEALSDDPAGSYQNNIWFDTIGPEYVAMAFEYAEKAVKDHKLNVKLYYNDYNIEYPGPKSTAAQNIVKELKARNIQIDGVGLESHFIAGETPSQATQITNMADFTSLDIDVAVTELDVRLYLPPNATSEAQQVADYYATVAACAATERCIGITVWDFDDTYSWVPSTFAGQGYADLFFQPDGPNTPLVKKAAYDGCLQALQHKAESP

OC1OC[C@@H](O[C@@H]2OC[C@@H](O[C@@H]3OC[C@@H](O)[C@H](O)[C@H]3O)[C@H](O)[C@H]2O)[C@H](O)[C@H]1O (stereo partly shown) [X3, xylotriose]
HPAEC of hydrolysis products (XYL10C-ΔN): employed an endo-mode of action to cleave xylotriose, xylotetraose, xylopentaose, xylohexaose | HPAEC of hydrolysis products (XYL10C): employed an endo-mode of action to cleave xylotriose, xylotetraose, xylopentaose, xylohexaose

OC1OC[C@@H](O[C@@H]2OC[C@@H](O[C@@H]3OC[C@@H](O[C@@H]4OC[C@@H](O[C@@H]5OC[C@@H](O[C@@H]6OC[C@@H](O)[C@H](O)[C@H]6O)[C@H](O)[C@H]5O)[C@H](O)[C@H]4O)[C@H](O)[C@H]3O)[C@H](O)[C@H]2O)[C@H](O)[C@H]1O (stereo partly shown) [X6, xylohexaose]
HPAEC of hydrolysis products (XYL10C-ΔN): employed an endo-mode of action to cleave xylotriose, xylotetraose, xylopentaose, xylohexaose | HPAEC of hydrolysis products (XYL10C): employed an endo-mode of action to cleave xylotriose, xylotetraose, xylopentaose, xylohexaose
